Results from PubChem BioAssay (NCI).
Several values for one entry are separate records, joined by “and”; a condition that tells them apart may be missing. Identical values can stand only once.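 Compound exposure: 48 hours, 5 concentrations, 96-well plates. Abbreviation: GI50, concentration required for 50% inhibition of growth. TGI: total growth inhibition.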

What was measured:
Experiment in all cases: growth of human tumour cells (NCI), 48 h
786-0 renal = test system: 786-0 renal
NCI-H522 lung = test system: NCI-H522 lung
UACC-257 melanoma = test system: UACC-257 melanoma
T-47D breast = test system: T-47D breast
HS 578T breast = test system: HS 578T breast
SK-MEL-5 melanoma = test system: SK-MEL-5 melanoma
MALME-3M melanoma = test system: MALME-3M melanoma
DU-145 prostate = test system: DU-145 prostate
KM12 colon = test system: KM12 colon
U251 CNS = test system: U251 CNS

Row | Compound | GI50 (786-0 renal) | TGI (786-0 renal) | GI50 (NCI-H522 lung) | TGI (NCI-H522 lung) | GI50 (UACC-257 melanoma) | TGI (UACC-257 melanoma) | GI50 (T-47D breast) | TGI (T-47D breast) | GI50 (HS 578T breast) | TGI (HS 578T breast) | GI50 (SK-MEL-5 melanoma) | TGI (SK-MEL-5 melanoma) | GI50 (MALME-3M melanoma) | TGI (MALME-3M melanoma) | GI50 (DU-145 prostate) | TGI (DU-145 prostate) | GI50 (KM12 colon) | TGI (KM12 colon) | GI50 (U251 CNS) | TGI (U251 CNS)
1 | O=c1cc(CNc2cc(F)cc(F)c2)c2ccc(I)cc2[nH]1 | 1.05 µM | > 100 µM | 0.305 µM | > 100 µM | > 100 µM | > 100 µM | 1.01 µM | > 100 µM | 0.41 µM | > 100 µM | 0.641 µM | > 100 µM | 0.714 µM | > 100 µM | 1.69 µM | > 100 µM | 0.423 µM | > 100 µM | 0.574 µM | > 100 µM
2 | Fc1ccc2[nH]cc(Cc3c[nH]c4ccc(F)cc34)c2c1 | 17.1 µM | 35.6 µM | 14.3 µM | 36.3 µM | 15.7 µM | 30.8 µM | 20 µM | 96.9 µM | 18.5 µM | 44.5 µM | 17.5 µM | 35.3 µM | 16.7 µM | 33.8 µM | 27.8 µM | 85.7 µM | 12 µM | 30.2 µM | 19.7 µM | 44.8 µM
3 | CC(C)(O)c1ccc(N2CCN(c3nnc(Cc4ccccc4)c4ccccc34)CC2)nc1 | 14.6 µM | 45.7 µM | 6.32 µM | 20.7 µM | 8.59 µM | 21.7 µM | 2.71 µM | 14.6 µM | 15.3 µM | 41.4 µM | 2.84 µM | 8.64 µM | 5.28 µM | 17.9 µM | 12.1 µM | 34.8 µM | 13.2 µM | 29.5 µM | 13.2 µM | 37.3 µM
4 | O=C(CCl)c1ccc([N+](=O)[O-])o1 | 3.32 µM | 10.9 µM | 2.81 µM | > 21.1 µM | 1.83 µM | 3.93 µM | 1.89 µM | 4.78 µM | 2.72 µM | 8.66 µM | 4.11 µM | 15.7 µM | 1.98 µM | 4.37 µM | 2.21 µM | 5.01 µM | 2.02 µM | 4.6 µM | 1.95 µM | 4.37 µM
5 | O=C(O)CS(=O)(=O)C(c1ccccc1)c1ccccc1 | – | > 100 µM | – | > 100 µM | – | > 100 µM | – | > 100 µM | – | > 100 µM | – | > 100 µM | – | > 100 µM | – | > 100 µM | – | > 100 µM | – | > 100 µM
6 | O=C(O)[C@@H]1C2CC([C@@H]1C(=O)O)[C@H](N1C(=O)CCC1=O)[C@@H]2Br (stereo partly drawn) | – | > 100 µM | – | > 100 µM | – | > 100 µM | – | > 100 µM | – | > 100 µM | – | > 100 µM | – | > 100 µM | – | > 100 µM | – | > 100 µM | – | > 100 µM
7 | O=C(Nc1cccc(Cl)c1)Nc1ncc(CCNc2ncnc3ccsc23)s1 | 7.55 µM and 6.41 µM | 41.1 µM and > 10 µM | 1.76 µM and 1.34 µM | 9.89 µM and > 10 µM | 2.12 µM and 1.22 µM | 11.4 µM and 9.27 µM | 2.26 µM and 1.27 µM | 7.5 µM and 5.63 µM | 2.92 µM and 0.64 µM | 39.7 µM and > 10 µM | 1.39 µM and 1.59 µM | 2.83 µM and 4.16 µM | 3.23 µM and 4.07 µM | 26 µM and > 10 µM | 4.59 µM and 2.74 µM | 20.5 µM and > 10 µM | 0.12 µM and 0.0657 µM | > 35.3 µM | 4.68 µM and 2.16 µM | > 45.7 µM
8 | CCc1ccc(NCc2cc(OC)c(OC)c(OC)c2)cc1 | 0.369 µM and 0.77 µM | 17.3 µM and > 38.5 µM | 0.274 µM | 0.59 µM and 0.807 µM | – | > 100 µM | – | 74.5 µM | – | > 100 µM | 0.297 µM and 0.104 µM | 7.84 µM and 14.7 µM | – | 30.8 µM and 35.6 µM | – | > 100 µM and 19.5 µM | – | 20.8 µM and 13.8 µM | 0.411 µM and 0.167 µM | 22.2 µM and 11.9 µM
9 | CC1=C(C(=O)OCc2ccccc2)C(c2ccc3c(c2)OCO3)n2c(nc3ccccc32)N1 (stereo not drawn) | 0.47 µM | > 100 µM | 0.164 µM | > 57.6 µM | – | > 100 µM | 0.508 µM | > 100 µM | 0.299 µM | > 48.8 µM | 0.472 µM | > 100 µM | 0.37 µM | > 100 µM | 0.488 µM | > 100 µM | 0.334 µM | > 100 µM | 0.464 µM | > 100 µM
10 | NC(=O)[C@H]1CCN(c2ncnc(N)c2F)C[C@@H]1N1CCC[C@@H](Nc2cc(Cl)cc(C(F)(F)F)c2)C1=O | 21.8 µM | > 100 µM | 7.11 µM | 28.4 µM | 20.3 µM | 59.7 µM | 7.7 µM | 76 µM | 15.5 µM | > 100 µM | 16.3 µM | 30 µM | 19.1 µM | 42.8 µM | 10.8 µM | > 100 µM | 6.31 µM | > 100 µM | 26.3 µM | > 100 µM
11 | CCCN(Cc1ccc(F)cc1)c1ccc(CO)c(Cl)c1 | 4.77 µM | 19.7 µM | 9.5 µM | 22.6 µM | 0.207 µM | 0.776 µM | 0.119 µM | 0.733 µM | 14.8 µM | 37.6 µM | 6.51 µM | 19.8 µM | 14.1 µM | 28.6 µM | 13.3 µM | 26.5 µM | 13 µM | 27.3 µM | 2.48 µM | 16.2 µM
